Source: US20250257075A1, “MACROCYCLIC INHIBITORS OF KRAS FOR THE TREATMENT OF CANCER” (Hoffmann-La Roche Inc., priority 2022, published 2025)

Tests used:
[1] = molecular target: KRAS G12V binding to BRAF (Homo sapiens, UniProt P01116+P62937, G12V); experiment: KRAS-BRAF with CYPA (500 nM) interaction assay (TR-FRET), G12V; format: biochemical; details: 3 hours
In short: (§1)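 TR-FRET (Ex320 nm, Em 665/615 nm) measured compound- or compound-CYPA-dependent disruption of KRAS-BRAF complex, with CYPA at 500 nM. Disruption scored as decrease in TR-FRET ratio versus DMSO control wells.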

KRAS G12C-BRAF complex = molecular target: T1, KRAS G12C-BRAF complex (Homo sapiens, UniProt P01116+P62937, G12C); experiment: KRAS G12C-BRAF NanoBit assay in HEK293 cells; format: cell-based; details: HEK293 stable cell pool, 3 hours of incubation
T1 construct: expressed in transfected cells
In short: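 HEK293 stable pool co-expressing SmBiT-KRAS G12C and BRAF RBD-LgBiT, exposed 3 h to compounds (16-point 3-fold dilution, top final 30 μM). Luminescence was read 20 min after Nano-Glo Live Cell substrate addition. A decrease versus DMSO control indicates disruption of the complex.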

human hepatocytes = experiment: Human hepatocyte stability assay; format: in vitro ADME; details: for Clearance Category: human hepatocytes
Protocol: The hepatocyte stability assay measures the rate of disappearance of a compound from incubations with cryopreserved suspension hepatocytes from human. Positive controls, including Midazolam, Raloxifene and Dextromethorphan, are included in every experiment. Incubations consist of 1 μM tested compound and suspension of human hepatocytes (1×10^6 cells/mL) in supplemented Williams' E Medium with 10% FBS and 0.5% Penicillin-streptomycin. The hepatocyte suspension was incubated with intermittent shaking 900 rpm at 37° C., in a 5% CO2 incubator. The reaction was stopped by adding methanol containing internal standard (2 μM Tolbutamide) at 2, 10, 20, 40, 60 and 120 minutes after compound addition, depletion of the parent compound was monitored by LC-MS/MS analysis.

[2] = GSH Reaction Rates (inherent GSH reactivity); format: in vitro ADME; details: for T½(hour) in GSH: pH 7.4, up to 6 h
From the text: Glutathione (GSH) is a tripeptide found in most of the tissues, especially in high concentrations in the liver, and plays critical roles in protecting cells from oxidative damage and the toxicity of xenobiotic electrophiles, and maintaining redox homeostasis. More specifically, glutathione conjugation helps contribute to detoxification by binding electrophiles that could otherwise bind to proteins or nucleic acids, resulting in cellular damage and genetic mutations.
Many potentially toxic electrophilic xenobiotics and some endogenous compounds are detoxified by conversion to the corresponding glutathione S-conjugate, which consumes inherent GSH and then diminishes detoxification effects. Some drugs and halogenated workplace/environmental contaminants are bioactivated by this mechanism.
Therefore Strategy to minimize the GSH metabolism is very critical. Short T1/2 in inherent GSH reaction indicated high GSH reaction rate. Thus T1/2 in inherent GSH reaction assay was determined for the screening of candidates.
Reference compounds and compounds of this invention potentially could form conjugation with GSH either through halogenated moieties substitution reaction or direct Michael addition reaction. This test was therefore performed to check GSH reactivity of listed compounds.
For inherent GSH reactivity determination, compounds at 1 μM were incubated at 37° C. with and without 5 mM GSH for 0, 0.5, 1, 2, 4 and 6 h in 100 mM potassium phosphate buffer at pH 7.4. At the end of the designated time points, samples were quenched with acetonitrile containing 10 mM N-ethylmaleimide and an internal standard. Quenched samples were centrifuged, and supernatants were analyzed by LC-MS/MS for compound quantification.

[3] = molecular target: KRAS G12D binding to BRAF (Homo sapiens, UniProt P01116+P62937, G12D); experiment: KRAS-BRAF with CYPA (500 nM) interaction assay (TR-FRET), G12D; format: biochemical; details: 3 hours
In short: as §1

[4] = 1 μM compound, 5 mM GSH, 37° C., pH 7.4, 6 hr
[5] = 1 μM compound, 5 mM GSH, 37° C.
[6] = 1 μM compound, human hepatocytes 1×10^6 cells/mL

Sequence of KRAS G12V binding to BRAF (P01116 1-188 isoform P01116-2 G12V): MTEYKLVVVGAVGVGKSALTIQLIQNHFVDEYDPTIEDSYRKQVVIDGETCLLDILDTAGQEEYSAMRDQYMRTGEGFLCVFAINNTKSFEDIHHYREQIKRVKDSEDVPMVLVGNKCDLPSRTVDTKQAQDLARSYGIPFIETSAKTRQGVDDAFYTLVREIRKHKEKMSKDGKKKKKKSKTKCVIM
Sequence of KRAS G12V binding to BRAF (P62937 whole entry): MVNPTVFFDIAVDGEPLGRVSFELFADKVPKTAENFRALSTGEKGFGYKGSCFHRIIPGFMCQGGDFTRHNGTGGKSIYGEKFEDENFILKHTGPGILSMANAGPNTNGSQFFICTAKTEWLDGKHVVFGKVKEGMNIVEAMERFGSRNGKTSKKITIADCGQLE
Sequence of KRAS G12D binding to BRAF (P01116 1-188 isoform P01116-2 G12D): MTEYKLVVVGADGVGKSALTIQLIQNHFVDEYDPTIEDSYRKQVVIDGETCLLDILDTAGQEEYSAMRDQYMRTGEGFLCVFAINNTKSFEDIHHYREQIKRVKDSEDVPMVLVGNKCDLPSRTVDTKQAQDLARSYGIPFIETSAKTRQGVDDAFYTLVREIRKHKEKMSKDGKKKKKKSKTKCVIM
Sequence of KRAS G12D binding to BRAF (P62937 whole entry): as the sequence (P62937 whole entry) above
T1 sequence (P01116 1-188 isoform P01116-2 G12C): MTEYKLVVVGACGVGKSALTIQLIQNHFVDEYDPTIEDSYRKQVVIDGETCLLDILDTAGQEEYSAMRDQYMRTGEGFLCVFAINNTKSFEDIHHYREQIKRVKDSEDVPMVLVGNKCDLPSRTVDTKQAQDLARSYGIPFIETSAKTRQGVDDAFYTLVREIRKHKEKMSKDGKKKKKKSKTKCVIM
T1 sequence (P62937 whole entry): as the sequence (P62937 whole entry) above

Row | IC50 [1] | IC50 (KRAS G12C-BRAF complex) | CL_hep (Human) (human hepatocytes; human, 1 μM) | Remaining at 6 hr in GSH (%) [2, 4] | IC50 [3] | CL_hep (Human) (human hepatocytes; [6]) | Remaining at 6 hr in GSH (%) ([2]; 6 h, 1 μM, pH 7.4) | half-life at 1 μM ([2]; pH 7.4) | Compound | T½(hour) in GSH [2, 5] | Clearance Category (human hepatocytes)
1 | > 10 µM | 0.036 µM | 3.6 mL/min/kg | 100% | > 10 µM |  |  |  | CO[C@@H](C)c1ncc(N2CCN(C)CC2)cc1-c1c2c3cc(c(F)cc3n1CC(F)(F)F)-c1csc(n1)C[C@H](NC(=O)[C@H](C(C)C)N(C)C(=O)[C@H]1C[C@@H](C#CC(F)(F)F)C1)C(=O)N1CCC[C@H](N1)C(=O)OCC(C)(C)C2 (atropisomer, axis not shown; (M)) [Example 3, cis-N-[(1S)-1-[[(7S,13S)-24-fluoro-(20M)-20-[2-[(1S)-1-methoxyethyl]-5-(4-methylpiperazin-1-yl)-3-pyridyl]-17,17-dimethyl-8,14-dioxo-21-(2,2,2-trifluoroethyl)-15-oxa-4-thia-9,21,27,28-tetrazapentacyclo[17.5.2.1^2,5.1^9,13.0^22,26]octacosa-1(25),2,5(28),19,22(26),23-hexaen-7-yl]carbamoyl]-2-methyl-propyl]-N-methyl-3-(3,3,3-trifluoroprop-1-ynyl)cyclobutanecarboxamide] | stable (If % depletion after 6 hour incubation is less than 20%, compounds were reported as stable) | 
2 | > 10 µM | 0.054 µM |  | 90% | > 10 µM | 2.9 mL/min/kg |  |  | CCn1c(-c2cc(N3CCN(CC(F)(F)F)CC3)cnc2[C@H](C)OC)c2c3cc(c(F)cc31)-c1csc(n1)C[C@H](NC(=O)[C@H](C(C)C)N(C)C(=O)[C@H]1C[C@@H](C#CC(F)(F)F)C1)C(=O)N1CCC[C@H](N1)C(=O)OCC(C)(C)C2 (atropisomer, axis not shown; (M)) [Example 8, cis-N-[(1S)-1-[[(7S,13S)-21-ethyl-24-fluoro-(20M)-20-[2-[(1S)-1-methoxyethyl]-5-[4-(2,2,2-trifluoroethyl)piperazin-1-yl]-3-pyridyl]-17,17-dimethyl-8,14-dioxo-15-oxa-4-thia-9,21,27,28-tetrazapentacyclo[17.5.2.1^2,5.1^9,13.0^22,26]octacosa-1(25),2,5(28),19,22(26),23-hexaen-7-yl]carbamoyl]-2-methyl-propyl]-N-methyl-3-(3,3,3-trifluoroprop-1-ynyl)cyclobutanecarboxamide] | stable (If % depletion after 6 hour incubation is less than 20%, compounds were reported as stable) | low (CL_hep (mL/min/kg)<6.96 is low clearance)
3 | > 10 µM | 0.012 µM |  |  | > 10 µM | 3.3 mL/min/kg | 94% |  | CCn1c(-c2cc(N3CCOCC3)cnc2[C@H](C)OC)c2c3cc(c(F)cc31)-c1csc(n1)C[C@H](NC(=O)[C@H](C(C)C)N(C)C(=O)[C@H]1C[C@@H](C#CC(F)(F)F)C1)C(=O)N1CCC[C@H](N1)C(=O)OCC(C)(C)C2 (atropisomer, axis not shown; (M)) [Example 11, cis-N-[(1S)-1-[[(7S,13S)-21-ethyl-24-fluoro-(20M)-20-[2-[(1S)-1-methoxyethyl]-5-morpholino-3-pyridyl]-17,17-dimethyl-8,14-dioxo-15-oxa-4-thia-9,21,27,28-tetrazapentacyclo[17.5.2.1^2,5.1^9,13.0^22,26]octacosa-1(25),2,5(28),19,22(26),23-hexaen-7-yl]carbamoyl]-2-methyl-propyl]-N-methyl-3-(3,3,3-trifluoroprop-1-ynyl)cyclobutanecarboxamide] |  | low (CL_hep (mL/min/kg)<6.96 is low clearance)
4 | 3.62 µM | 0.205 µM |  |  | > 10 µM | 8.8 mL/min/kg | 77% | 28.9 h | CC#CC(=O)N1CC[C@H](C(=O)N(C)[C@H](C(=O)N[C@H]2Cc3nc(cs3)-c3ccc4c(c3)c(c(-c3cccnc3[C@H](C)OC)n4CC)CC(C)(C)COC(=O)[C@@H]3CCCN(N3)C2=O)C(C)C)C1 [Example A168, reference compound] |  | medium (16.24<CL_hep (mL/min/kg) >6.96 is medium clearance)
